Measured values reported in patent publication US11266701B2, “Synergistic combinations of caffeine, ginkgo biloba and beta-phenylethylamine” (TRINUTRA LTD., priority 2016, dated 2022).

Test system: murine macrophage cell line, RAW 264.7
Experiment: Nitric oxide (NO) release from LPS-induced RAW 264.7 cells (Griess Reagent System)
Type: cell-based
Procedure: 10^5 cells from a murine macrophage cell line, RAW 264.7, were seeded in 96-well plates in a medium containing 1% FBS, 1% Glutamine and 1% Pen/strep in DMEM. […] In addition, positive control cells were treated with 20 μM dexamethasone. Nitric oxide (NO) release was tested after incubation at 37° C., 5% CO2 using the Griess Reagent System. The method is based on the chemical diazotization reaction that was originally described by Griess in 1879, which uses sulfanilamide and N-1-napthylethylenediamine dihydrochloride (NED) under acidic (phosphoric acid) conditions. This system detects NO2^− in a variety of biological and experimental liquid matrices such as tissue culture medium that was tested in this study.

SMILES | NO release as % of LPS-only negative control (FIG. 1: 240 μg/ml Ginkgo biloba, 500 μg/ml PEA, tested separately, LPS 5 ng/ml, 22 hours) | NO release as % of LPS-only negative control (FIG. 2: 240 μg/ml Ginkgo biloba, 120 μg/ml PEA, tested separately, LPS 5 ng/ml, 22 hours) | reduction in NO release (FIG. 3: 630 μg/ml PEA alone, C+G+P = 390 μg/ml caffeine + 40 μg/ml Ginkgo biloba + 630 μg/ml PEA) | effect on NO release (FIG. 4: 630 μg/ml PEA alone, binary combination 390 μg/ml caffeine + 630 μg/ml PEA) | NO release inhibition (FIG. 5: 40 μg/ml Ginkgo biloba, 630 μg/ml PEA, separately and as binary combination) | effect on NO release compared with dexamethasone positive control (FIGS. 3-6: 390 μg/ml caffeine, 40 μg/ml Ginkgo biloba, 630 μg/ml PEA) | effect on NO release (FIG. 1: 40 μg/ml caffeine tested separately, LPS 5 ng/ml, 22 hours) | effect on NO release (FIG. 2: 40 μg/ml caffeine tested separately, LPS 5 ng/ml, 22 hours) | effect on NO release (FIG. 3: 390 μg/ml caffeine, 40 μg/ml Ginkgo biloba, tested separately)
NCCc1ccccc1 [PEA, β-phenylethylamine] | ~85% | 95% | 20% | significant reduction | a certain degree of NO release inhibition | considerably less than that seen in the positive control |  |  | 
Cn1c(=O)c2c(ncn2C)n(C)c1=O [caffeine] |  |  |  |  |  |  | essentially without effect | essentially without effect | slight reduction
